Assay results: US9102636B2, “Analgesic compounds, compositions, and uses thereof” (Galleon Pharmaceuticals, Inc., priority 2010, dated 2015)
Where “and” joins values, the source holds several entries; their conditions need not be identical. Equal entries are not always repeated. Entries after “also recorded” stand apart in the source; their conditions may differ.

How the values were obtained:
[1] = test system: Carrageenan-induced thermal hyperalgesia; test: Carrageenan-induced thermal hyperalgesia (Hargreaves); assay type: in vivo, rat; conditions: for Paw withdrawal latency: Pre-Cg, individual rats, FIG. 21A
Description: The effect of Compound 2 in the rat carrageenan model of acute inflammatory pain was evaluated. The intraplantar carrageenan model of acute inflammatory pain in the rat results in behaviors similar to that observed in patients and has been widely used to assess novel pharmacological treatments (Whiteside et al., 2005, J. Pharmacol. Exp. Ther. 314:1234-1240). The objective of this study was to evaluate the ability of Compound 2 to reverse or prevent development of thermal hyperalgesia and edema in the rat carrageenan model of acute inflammatory pain. The positive control was indomethacin (Sigma, St. Louis), and the negative control was vehicle (0.5% methyl cellulose). […] The Hargreaves apparatus was obtained from Ugo Basile, Italy, and the lamba-carrageenan was obtained from Sigma, St. Louis. For this assay, paw withdrawal latency to a thermal stimulus was assessed using a radiant heat source (Ugo Basile, Italy) aimed at the plantar surface of the left hind paw (Hargreaves test). […] Paw volume was measured by displacement of water and assuming a tissue density equal to that of water. Baseline latencies were taken prior to carrageenan administration and re-assessed 4 h later. Compound 2 or vehicle was administered (10 and 30 mg/kg, p.o.) 3 hrs after carrageenan (curative) and behavior assessed 1 hr later. […] Indomethacin (positive control, 30 mg/kg p.o.) was administered prior to carrageenan and behavior assessed 4 hrs post-carrageenan. […] After induction of anesthesia, the injection site was prepared in a sterile manner and 50 μl of a 2% Jamba-carrageenan was injected. After injection, animals were weighed and allowed to recover before being returned to their home cages. Statistical significance was determined on untransformed data using a two-way analysis of variance (Graphpad Prism, NC). Significant main effects were analyzed further by subsequent Bonferronni post-hoc test. The level of significance was set at p<0.05. Data are shown as mean±S.E.M. (with an asterisk to denote significance as compared to vehicle treated controls).

[2] = Oral pharmacokinetics (Tmax) in rats; conditions: rat, in vivo, given orally
[3] = test system: spinal nerve ligation induced tactile allodynia; test: Spinal nerve ligation (SNL, Chung model) induced tactile allodynia (von Frey filaments); assay type: in vivo, rat; conditions: for Paw threshold / Paw withdrawal threshold: individual animals; for Paw withdrawal threshold: non-fasted
[4] = test system: FCA induced thermal hyperalgesia; test: FCA induced thermal hyperalgesia (Hargreaves); assay type: in vivo, rat; conditions: for Paw withdrawal latency: individual rats, FIG. 18A
Description: (§1) Compound 2 was evaluated in the rat Freund's complete adjuvant (FCA) model of inflammatory pain. The rat Freund's complete adjuvant (FCA) intraplantar model of inflammatory pain produces behaviors similar to those observed in patients and has been widely used to assess novel pharmacological treatments (Lam et al., 2008, J Ethnopharmacol. 120:44-50). The positive control was celecoxib (TRC, Montreal), and the negative control was vehicle (0.5% methyl cellulose, in phosphate buffered saline). […] The Hargreaves apparatus was obtained from Ugo Basile, Italy. The Freund's complete adjuvant was obtained from Sigma, St. Louis, and the electronic von frey was obtained from Stoelting, Ill. For this assay, paw withdrawal latency to a thermal stimulus was assessed using a radiant heat source (Ugo Basile, Italy) aimed at the plantar surface of the left hind paw (Hargreaves test; […] Paw withdrawal thresholds to a non-noxious tactile stimulus was assessed using an electronic von Frey apparatus that presented an increasing mechanical force to the plantar surface of the hind paw. Paw volume was measured by displacement of water and assuming a tissue density equal to that of water. […] Celecoxib (30 mg/kg p.o.) served as the positive control. […] After induction of anesthesia, the injection site was prepared in a sterile manner and 100 μl of a 50% suspension of FCA injected. After injection, animals were weighed and allowed to recover before being returned to their home cages. Statistical significance was determined on untransformed data using a two-way analysis of variance (Graphpad Prism, NC). Significant main effects were analyzed further by subsequent Bonferronni post-hoc test. The level of significance was set at p<0.05. Data are shown as mean±S.E.M. (with an asterisk to denote significance as compared to vehicle treated controls).

FCA induced edema = FCA induced edema (paw volume); assay type: in vivo, rat
Description: as §1

## CC1(C)SC(Nc2ccccc2O)=N[C@@H]1C(=O)O [Compound 2, (R)-2-(2-hydroxyphenylamino)-thiazoline-5,5-dimethyl-4-carboxylic acid]
[1]; compound 2 10 mg/kg group, 10 mg/kg
  Paw withdrawal latency: 19.8 s and 15.34 s and 22.07 s and 17.39 s and 31.03 s and 14.07 s
[1]; compound 2 30 mg/kg group, 30 mg/kg
  Paw withdrawal latency: 23.87 s and 12.41 s and 16.08 s and 28.86 s and 18.1 s and 22.77 s and 17.58 s
[1]; rat, 10 and 30 mg/kg p.o. 3 hours post-carrageenan
  carrageenan-induced thermal hyperalgesia, curative (finding in words): without significantly reversing thermal hyperalgesia; also recorded: did not significantly reverse thermal hyperalgesia
[2]
  Tmax: 1 h
[3]; FIG. 25, compound 2 30 mg/kg p.o. once on the day of surgery, 1 wk, 30 mg/kg
  Paw threshold: 1.85 g and 1.18 g and 2.81 g and 4.47 g and 6.4 g and 2.2 g and 15 g and 4.25 g
[3]; FIG. 25, compound 2 30 mg/kg p.o. once on the day of surgery, 2 wks, 30 mg/kg
  Paw threshold: 1.65 g and 2.81 g and 2 g (2×) and 3.73 g and 0.99 g and 5.56 g and 5.04 g
[3]; FIG. 25, compound 2 30 mg/kg p.o. once on the day of surgery, Pre-Sx
  Paw threshold: 15 g
[3]; FIG. 26, compound 2 30 mg/kg p.o. QD on days 1-5 post-surgery, 1 wk, 30 mg/kg
  Paw threshold: 15 g (4×) and 11.41 g and 3.13 g and 1.18 g and 6.66 g
[3]; FIG. 26, compound 2 30 mg/kg p.o. QD on days 1-5 post-surgery, 2 wks, 30 mg/kg
  Paw threshold: 13.96 g (2×) and 4.25 g and 5.37 g and 11.69 g and 2.8 g and 8.44 g and 7.94 g
[3]; FIG. 26, compound 2 30 mg/kg p.o. QD on days 1-5 post-surgery, 3 wks, 30 mg/kg
  Paw threshold: 7.53 g and 6.64 g and 4.98 g and 2.2 g and 4.4 g and 2.38 g and 10.31 g and 15 g
[3]; FIG. 26, compound 2 30 mg/kg p.o. QD on days 1-5 post-surgery, Pre-Sx, 30 mg/kg
  Paw threshold: 15 g (7×) and 11.69 g
[3]; compound 2 10 mg/kg p.o., 1 hr (D1), 10 mg/kg
  Paw withdrawal threshold: 1.56 g and 4.98 g and 4.25 g (2×) and 15 g and 3.13 g and 2.81 g and 4.4 g
[3]; compound 2 10 mg/kg p.o., 1 hr (D2), 10 mg/kg
  Paw withdrawal threshold: 1.31 g and 1.85 g (3×) and 2.38 g and 2.64 g and 1.65 g and 1.4 g
[3]; compound 2 10 mg/kg p.o., 1 hr (D3), 10 mg/kg
  Paw withdrawal threshold: 0.44 g and 3.67 g and 1.85 g and 7.94 g and 3.33 g and 2 g and 2.81 g and 4.4 g
[3]; compound 2 10 mg/kg p.o., 3 hrs (D1), 10 mg/kg
  Paw withdrawal threshold: 2 g and 7.94 g and 1.4 g and 15 g and 2.81 g and 2.64 g and 1.85 g and 3.57 g
[3]; compound 2 10 mg/kg p.o., 3 hrs (D2), 10 mg/kg
  Paw withdrawal threshold: 0.4 g and 1.56 g (2×) and 11.69 g and 2.81 g and 2.37 g and 2 g and 3.71 g
[3]; compound 2 10 mg/kg p.o., 3 hrs (D3), 10 mg/kg
  Paw withdrawal threshold: 0.99 g and 2.37 g and 1.56 g and 2.38 g and 2.81 g (2×) and 0.65 g and 3.33 g
[3]; compound 2 10 mg/kg p.o., Pre-Drug, 10 mg/kg
  Paw withdrawal threshold: 2.2 g and 3.13 g (2×) and 4.25 g and 3.58 g and 3.73 g and 4.4 g and 2.64 g
[3]; compound 2 10 mg/kg p.o., Pre-Sx, 10 mg/kg
  Paw withdrawal threshold: 11.69 g and 15 g (7×)
[3]; compound 2 50 mg/kg p.o., 1 hr (D1), 50 mg/kg
  Paw withdrawal threshold: 2.81 g (2×) and 6.64 g and 5.56 g (2×) and 3.67 g and 4.23 g and 4.98 g
[3]; compound 2 50 mg/kg p.o., 1 hr (D2), 50 mg/kg
  Paw withdrawal threshold: 1.19 g and 2.81 g and 3.12 g and 7.94 g
[3]; compound 2 50 mg/kg p.o., 3 hrs (D1), 50 mg/kg
  Paw withdrawal threshold: 1.18 g and 3.13 g (2×) and 3.33 g and 6.66 g (2×) and 6.64 g and 4.7 g
[3]; compound 2 50 mg/kg p.o., Pre-Drug, 50 mg/kg
  Paw withdrawal threshold: 2.81 g (2×) and 3.33 g and 3.73 g and 2.2 g and 5.04 g and 4.25 g and 3.58 g
[3]; compound 2 50 mg/kg p.o., Pre-Sx
  Paw withdrawal threshold: 15 g
[3]; rat, 30 mg/kg p.o. immediately following surgery, assessed 1 and 2 weeks later, FIG. 25
  development of SNL tactile allodynia, single administration: a significant difference between treated animals and vehicle controls was not noted
[3]; rat, 30 mg/kg p.o. once a day for 5 days starting on day of surgery, 1, 2 and 3 weeks post surgery, FIG. 26
  development of SNL tactile allodynia, repeated administration: significant reduction in tactile allodynia
[3]; rat, 50 mg/kg p.o., 48 hrs later, FIG. 24
  reversal of SNL tactile allodynia, fasted animals, subsequent administrations: failed to produce a statistically significant effect
[3]; rat, 10 and 50 mg/kg p.o., any time point after any of three administrations, FIG. 23
  reversal of SNL tactile allodynia, non-fasted animals: did not produce a statistically significant difference from vehicle treated animals
[4]; baseline (prior to FCA)
  Paw withdrawal latency: 16.6 s and 17.55 s and 20.74 s and 20.9 s and 20.6 s and 19.33 s
[4]; day 1, compound 2 25 mg/kg i.v. preemptive, 25 mg/kg
  Paw withdrawal latency: 14.4 s and 156.3 s and 15.1 s (2×) and 15.7 s and 22.7 s
[4]; day 3, compound 2 25 mg/kg i.v. preemptive, 25 mg/kg
  Paw withdrawal latency: 12.5 s and 19.12 s and 19.5 s (2×) and 15.7 s and 17.7 s
[4]; day 4, compound 2 25 mg/kg i.v. preemptive, 25 mg/kg
  Paw withdrawal latency: 14 s and 16.25 s and 16.51 s (2×) and 16.6 s and 18.2 s
[4]; rat, single dose 25 mg/kg i.v. preemptive, significant 72 hours post-FCA, 25 mg/kg
  FCA thermal hyperalgesia (finding in words): prevented the development; also recorded: significantly prevented
FCA induced edema; 24 hrs post, compound 2 10 mg/kg p.o. preemptive, FIG. 20A, 10 mg/kg
  Paw volume: 2.7 mL and 2.6 mL and 3.1 mL
FCA induced edema; 24 hrs post, compound 2 30 mg/kg p.o. preemptive, FIG. 20A, 30 mg/kg
  Paw volume: 2.1 mL and 2.9 mL and 3 mL
FCA induced edema; 48 hrs post, compound 2 10 mg/kg p.o. preemptive, FIG. 20A, 10 mg/kg
  Paw volume: 2.6 mL and 2.5 mL and 2.9 mL and 3.2 mL
FCA induced edema; 48 hrs post, compound 2 30 mg/kg p.o. preemptive, FIG. 20A, 30 mg/kg
  Paw volume: 2.5 mL and 2.8 mL and 3.1 mL and 2.7 mL and 2.9 mL
FCA induced edema; FCA/Compound 2, 10 mg/kg p.o., dosed 24 hours post-FCA, Pre-FCA (baseline), individual animals
  Paw volume: 1.7 mL (2×) and 1.6 mL (2×) and 1.8 mL (3×) and 1.5 mL
FCA induced edema; FCA/Compound 2, 10 mg/kg p.o., 1 hr (D2), individual animals
  Paw volume: 2.7 mL (3×) and 2.9 mL and 2.5 mL and 2.8 mL and 2.3 mL and 3.2 mL
FCA induced edema; FCA/Compound 2, 10 mg/kg p.o., 1 hr, individual animals
  Paw volume: 2.9 mL (2×) and 3.1 mL (2×) and 2.7 mL (2×) and 2.8 mL and 3 mL
FCA induced edema; FCA/Compound 2, 10 mg/kg p.o., 3 hrs (D2), individual animals
  Paw volume: 2.7 mL (2×) and 3 mL and 2.6 mL and 2.5 mL and 2.8 mL and 2.4 mL and 3.2 mL
FCA induced edema; FCA/Compound 2, 10 mg/kg p.o., 3 hrs, individual animals
  Paw volume: 2.9 mL (4×) and 3.1 mL and 2.7 mL and 2.4 mL and 3.2 mL
FCA induced edema; FCA/Compound 2, 10 mg/kg p.o., Pre-Drug (D2), individual animals
  Paw volume: 2.7 mL (2×) and 3 mL and 2.6 mL (2×) and 2.8 mL and 2.4 mL and 3.2 mL
FCA induced edema; FCA/Compound 2, 10 mg/kg p.o., Pre-Drug, individual animals
  Paw volume: 3.1 mL (2×) and 2.8 mL (2×) and 2.9 mL and 3 mL and 2.7 mL and 3.4 mL
FCA induced edema; FCA/Compound 2, 30 mg/kg p.o., dosed 24 hours post-FCA, Pre-FCA (baseline), individual animals
  Paw volume: 1.7 mL (4×) and 1.8 mL (2×) and 1.5 mL and 1.9 mL
FCA induced edema; FCA/Compound 2, 30 mg/kg p.o., 1 hr, individual animals
  Paw volume: 2.6 mL
FCA induced edema; FCA/Compound 2, 30 mg/kg p.o., Pre-Drug, individual animals
  Paw volume: 2.8 mL (2×) and 3 mL (2×) and 2.9 mL and 3.2 mL and 2.6 mL and 3.4 mL
FCA induced edema; Pre-FCA, compound 2 10 mg/kg p.o. preemptive group, individual rats, FIG. 20A, 10 mg/kg
  Paw volume: 1.7 mL (2×) and 1.6 mL and 1.8 mL (2×) and 1.9 mL
FCA induced edema; Pre-FCA, compound 2 30 mg/kg p.o. preemptive group, individual rats, FIG. 20A, 30 mg/kg
  Paw volume: 1.6 mL and 1.7 mL (2×) and 1.9 mL and 1.8 mL (2×)
FCA induced edema; rat, 10 and 30 mg/kg p.o., preemptive and curative (24 hours post-FCA)
  FCA-induced edema (finding in words): did not have a statistically significant effect; also recorded: did not affect edema
